Patent US11299485B2, “Thiophene derivative and use thereof” (FUJIMOTO CO., LTD., priority 2018, dated 2022)

How the values were obtained:
Assay type in all cases: cell-based
TNF-α production = experiment: Human TNF-α production suppression test (LPS-stimulated peripheral blood mononuclear cells, ELISA); settings: PBMC, compound 10 μg/mL, 24 hr, control well = 100, read-out: TNF-α production suppressive rate (%)
Method: Example 50: Human TNF-α Production Suppression Test
Peripheral blood of a healthy adult was collected in a vacuum blood collection tube (Terumo, containing EDTA/2Na), and then diluted two-fold with an equal volume of OTSUKA NORMAL SALINE (Otsuka Pharmaceutical Co., Ltd.). The diluted blood was mixed with Lymphoprep (AXIS-SHIELD) in half the volume of the diluted blood, dispensed into a 15 mL conical tube, and centrifuged at room temperature for 20 min (2,100 rpm). The mononuclear cells accumulated at the interface between Lymphoprep and plasma was transferred to a 50 mL conical tube, diluted with OTSUKA NORMAL SALINE, and the mononuclear cells suspension was centrifuged at room temperature for 10 min (1,150 rpm) and then the supernatant was removed. The mononuclear cells fraction obtained as a precipitate was suspended in an appropriate amount of 10% fetal calf serum (Thermo Fisher Scientific)-containing RPMI1640 medium (Thermo Fisher Scientific, hereinafter abbreviated as medium A), and diluted as appropriate with 0.4% trypan blue solution (Sigma-Aldrich Co. LLC.). The number of viable cells was counted with a hemocytometer (ERMA INC.). It was diluted with medium A such that the value obtained was 5×10^5 cells/mL. On the other hand, 75 μL of medium A, 5 μL of 0.4 mg/mL test compound solution (DMSO solution 10-fold diluted with medium A), and 20 μL of 10 μg/mL lipopolysaccharide (Sigma-Aldrich Co. LLC.) solution (diluted with medium A) were each added in advance to the same well of a Falcon 96-well flat bottom plate (Corning Incorporated), and the above-mentioned cell suspension was dispensed at 0.1 mL/well. 5 μL of DMSO diluted 10-fold with medium A was added to the control well instead of the compound solution. After culturing at 37° C. in a 5% CO2 stream for 24 hr, the culture solution was centrifuged at 4° C., 1,000 rpm for 3 min and the supernatant was recovered. The content of TNF-α in the supernatant was measured using an ELISA kit (Peprotech) according to a conventional method. The amount of TNF-α produced in the well containing the test compound was determined with the amount of TNF-α produced in the control well as 100, and the suppression rate was calculated for each test.

Pfeiffer cells = experiment: Human diffuse large B-cell lymphoma cell line Pfeiffer proliferation suppression test; settings: 144 h, compound 10 μM, 3 days + re-plating with compound 3 days, WST-8, read-out: cell survival rate (% of control) Pfeiffer
From the text: Example 52: Human Diffuse Large B-Cell Lymphoma Cell Line Pfeiffer Proliferation Suppression Test
(§1) Pfeiffer cells (ATCC, CRL-2632) were suspended in medium B, and diluted as appropriate with 0.4% trypan blue solution (Sigma-Aldrich Co. LLC.). The number of viable cells was counted with a hemocytometer (Funakoshi Co., Ltd.). A cell suspension obtained by diluting with medium B such that the value obtained was 1.3×10^5 cells/mL was dispensed into a Falcon 96 well flat bottom plate (Corning Incorporated) at 75 μL/well, and culture was started at 37° C. under 5% CO2 stream. The next day, a solution obtained by diluting 4 mM DMSO solution of the test compound 100-fold with medium B was added by 25 μL to each well (final concentration of test compound 10 μM). 25 μL of a solution obtained by diluting DMSO 100-fold with medium B was added to the control well. After culturing at 37° C. in a 5% CO2 stream for 3 days, the cell culture medium was uniformly suspended with a multi channel pipette, 14 μL per well was transferred into another new Falcon 96 well flat bottom plate. A solution obtained by diluting 4 mM DMSO solution of the same test compound as the first time 400-fold with medium B was added by 86 μL to a total amount of 100 μL (final concentration of test compound 10 μM). After culturing at 37° C. in a 5% CO2 stream for 3 days, the cell proliferation activity was measured according to the instruction manual attached to WST-8 Kit (KISHIDA CHEMICAL Co., Ltd.).

REC-1 cells = experiment: Human mantle cell lymphoma cell line REC-1 proliferation suppression test; settings: Rec1, 72 h, compound 10 μM, 3 days, WST-8, read-out: cell survival rate (% of control) REC-1
Method: Example 53: Human Mantle Cell Lymphoma Cell Line REC-1 Proliferation Suppression Test
as §1, with “REC-1” for “Pfeiffer”, “CRL-3004)” for “CRL-2632)”, “cell” for “cell culture medium was uniformly suspended with a multi channel pipette, 14 μL per well was transferred into another new Falcon 96 well flat bottom plate. A solution obtained by diluting 4 mM DMSO solution of the same test compound as the first time 400-fold with medium B was added by 86 μL to a total amount of 100 μL (final concentration of test compound 10 μM). After culturing at 37° C. in a 5% CO2 stream for 3 days, the cell”

SMILES | inhibition at 10 µg/mL (TNF-α production) | viability at 10 µM (Pfeiffer cells) | viability at 10 µM (REC-1 cells)
O=C1CCC(n2cc(-c3cscc3OCc3ccccc3)nn2)C(=O)N1 (stereo not drawn) [compound 32, 3-{4-[4-(benzyloxy)thiophen-3-yl]-1H-1,2,3-triazol-1-yl}piperidine-2,6-dione] | 100% | 60% | 15%
COc1cscc1-c1nnn(C2CCC(=O)NC2=O)c1I (stereo not drawn) [compound 49, 3-[5-iodo-4-(4-methoxythiophen-3-yl)-1H-1,2,3-triazol-1-yl]piperidine-2,6-dione] | 79% | 75% | 24%
O=C1CCC(n2cc(-c3cscc3Cl)nn2)C(=O)N1 (stereo not drawn) [compound 14, 3-[4-(4-chlorothiophen-3-yl)-1H-1,2,3-triazol-1-yl]piperidine-2,6-dione] | 75% | 74% | 34%
Cc1ccc(-c2cn(C3CCC(=O)NC3=O)nn2)s1 (stereo not drawn) [compound 5, 3-[4-(5-methylthiophen-2-yl)-1H-1,2,3-triazol-1-yl]piperidine-2,6-dione] | 71% | 98% | 53%
COC(=O)c1scc(-c2cn(C3CCC(=O)NC3=O)nn2)c1OC (stereo not drawn) [compound 16, methyl 4-[1-(2,6-dioxopiperidin-3-yl)-1H-1,2,3-triazol-4-yl]-3-methoxythiophene-2-carboxylate] | 100% | 98% | 85%
CC(Oc1cscc1-c1cn(C2CCC(=O)NC2=O)nn1)c1ccccc1 (stereo not drawn) [compound 44, 3-{4-[4-(1-phenylethoxy)thiophen-3-yl]-1H-1,2,3-triazol-1-yl}piperidine-2,6-dione] | 79% | 94% | 30%
C[C@@H]1CN(Cc2ccc(COc3cscc3-c3cn(C4CCC(=O)NC4=O)nn3)cc2)C[C@H](C)O1 (stereo partly drawn) [compound 38, 3-{4-[4-(4-{[(2S,6R)-2,6-dimethylmorpholino]methyl}benzyloxy)thiophen-3-yl]-1H-1,2,3-triazol-1-yl}piperidine-2,6-dione] | 89% | 29% | 5%
O=C1CCC(n2cc(-c3ccc(Br)s3)nn2)C(=O)N1 (stereo not drawn) [compound 12, 3-[4-(5-bromothiophen-2-yl)-1H-1,2,3-triazol-1-yl]piperidine-2,6-dione] | 84% | 94% | 77%
O=C1CCC(n2cc(-c3cc(Br)sc3Br)nn2)C(=O)N1 (stereo not drawn) [compound 13, 3-[4-(2,5-dibromothiophen-3-yl)-1H-1,2,3-triazol-1-yl]piperidine-2,6-dione] | 35% | 100% | 100%
COc1sccc1-c1cn(C2CCC(=O)NC2=O)nn1 (stereo not drawn) [compound 18, 3-[4-(2-methoxythiophen-3-yl)-1H-1,2,3-triazol-1-yl]piperidine-2,6-dione] | 100% | 70% | 18%
CCCOc1cscc1-c1cn(C2CCC(=O)NC2=O)nn1 (stereo not drawn) [compound 21, 3-[4-(4-propoxythiophen-3-yl)-1H-1,2,3-triazol-1-yl]piperidine-2,6-dione] | 30% | 106% | 63%
CCOc1cscc1-c1cn(C2CCC(=O)NC2=O)nn1 (stereo not drawn) [compound 17, 3-[4-(4-ethoxythiophen-3-yl)-1H-1,2,3-triazol-1-yl]piperidine-2,6-dione] | 92% | 72% | 23%
O=C1CCC(n2cc(-c3cscc3OCc3ccccn3)nn2)C(=O)N1 (stereo not drawn) [compound 34, 3-{4-[4-(pyridin-2-ylmethoxy)thiophen-3-yl]-1H-1,2,3-triazol-1-yl}piperidine-2,6-dione] | 97% | 104% | 33%
O=C1CCC(n2cc(-c3cscc3OCc3ccc(Cl)cc3)nn2)C(=O)N1 (stereo not drawn) [compound 43, 3-{4-[4-(4-chlorobenzyloxy)thiophen-3-yl]-1H-1,2,3-triazol-1-yl}piperidine-2,6-dione] | 87% | 89% | 23%
O=C1CCC(n2cc(-c3cccs3)nn2)C(=O)N1 (stereo not drawn) [compound 3, 3-[4-(thiophen-2-yl)-1H-1,2,3-triazol-1-yl]piperidine-2,6-dione] | 59% | 96% | 65%
COc1c(-c2cn(C3CCC(=O)NC3=O)nn2)csc1Cl (stereo not drawn) [compound 22, 3-[4-(5-chloro-4-methoxythiophen-3-yl)-1H-1,2,3-triazol-1-yl]piperidine-2,6-dione] | 48% | 97% | 65%
Cl.O=C1CCC(n2cc(-c3cscc3OCc3ccc(CCN4CCOCC4)cc3)nn2)C(=O)N1 (stereo not drawn) [compound 45, 3-(4-{4-[4-(2-morpholinoethyl)benzyloxy]thiophen-3-yl}-1H-1,2,3-triazol-1-yl)piperidine-2,6-dione hydrochloride] | 76% | 78% | 26%
O=C1CCC(n2cc(-c3scc4c3OCCO4)nn2)C(=O)N1 (stereo not drawn) [compound 10, 3-[4-(2,3-dihydrothieno[3,4-b][1,4]dioxin-5-yl)-1H-1,2,3-triazol-1-yl]piperidine-2,6-dione] | 50% | 113% | 57%
O=C1CCC(n2nnc(-c3ccsc3)c2Br)C(=O)N1 (stereo not drawn) [compound 48, 3-[5-bromo-4-(thiophen-3-yl)-1H-1,2,3-triazol-1-yl]piperidine-2,6-dione] | 51% | 98% | 98%
O=C1CCC(n2cc(-c3cscc3OCc3ccccc3CN3CCOCC3)nn2)C(=O)N1 (stereo not drawn) [compound 40, 3-(4-{4-[2-(morpholinomethyl)benzyloxy]thiophen-3-yl}-1H-1,2,3-triazol-1-yl)piperidine-2,6-dione] | 86% | 91% | 33%
COc1cscc1-c1cn(C2CCC(=O)NC2=O)nn1 (stereo not drawn) [compound 19, 3-[4-(4-methoxythiophen-3-yl)-1H-1,2,3-triazol-1-yl]piperidine-2,6-dione] | 83% | 11% | 4%
O=C1CCC(n2cc(-c3cscc3OC3CCCC3)nn2)C(=O)N1 (stereo not drawn) [compound 27, 3-{4-[4-(cyclopentyloxy)thiophen-3-yl]-1H-1,2,3-triazol-1-yl}piperidine-2,6-dione] | 39% | 98% | 80%
